These results are taken from patent publication US11292788B2, “IL-17 and IFN-gamma inhibition for the treatment of autoimmune diseases and chronic inflammation” (Immunic AG, priority 2017, dated 2022).

In brackets after ≈: the same amount, converted by molar mass. Where two headings read alike, the source gives them in different places. A value given as a limit tells only on which side of the number the result lay.

Data set [1] concerns IL-17A. Nature of the data set: Cytokine assay: IL-17A production by human PBMC stimulated with PHA. Conditions: IC50 class, read-out: IL-17A Inhib. The format is cell-based. Summed up:
(§1)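 Healthy-donor PBMC, isolated on Histopaque-1077, were seeded at 1×10^5 cells/well in RPMI1640 with 10% dialyzed heat-inactivated FCS, activated with 2 μg/ml PHA and incubated with compound for 48 hours. Supernatant cytokine was measured by Luminex BioPlex or ELISA. IC50 came from semilogarithmic titration; screening used 10, 1, 0.1 and 0.01 μM.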

In data set [2] the test system is IL-17F. Nature of the data set: Cytokine assay: IL-17F production by human PBMC stimulated with PHA. The conditions noted are these: IC50 class, read-out: IL-17F Inhib. Format: cell-based. Summed up: as §1
Data set [3] deals with INF-γ. Nature of the data set: Cytokine assay: INF-γ production by human PBMC stimulated with PHA. Format: cell-based. Conditions: IC50 class, read-out: IFN-gamma Inhib. Summed up:
as §1

Data set [4] can be described thus: Aqueous solubility in 50 mM phosphate buffer (HPLC/DAD). Conditions: aqueous solubility class; for solubility at 24 h: 50 mM phosphate buffer, 23 °C, pH 7.4, aqueous buffer, kinetic from dmso stock, read-out: aq. solub. The format is physicochemical. The protocol: To achieve this, the samples (final volume 500 μl, 200 μM compound concentration) were incubated for 24 hours at 23° C. under continuous shaking at 1400 rpm (Thermomixer, Eppendorf) in aqueous phosphate buffers (pH 4.0, 6.0, 7.4 and 9.0) with a final DMSO concentration of 1%. To separate the undissolved compound from the solution, the samples were centrifuged (30 min 18000 g at 23° C.). Supernatants were measured via HPLC equipped with a UV detector and concentrations were calculated according to signals of a standard curve. The standard curve was prepared by diluting a stock solution of each compound (c=0.1 mg/ml; received by adding 10 μl of 20 mM compound in DMSO to 914 μl MeCN) in a certain amount of MeCN to cover a range of 0.1 to 200 μg/ml.

Data set [5] in a line: Microsomal stability: incubation with human liver microsomes, residual parent compound by HPLC-MS/MS. The format is in vitro ADME. The conditions noted are these: up to 60 min; for half-life at 1 μM: read-out: t1/2 hLM. Summed up: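 Compound at 1 μM final with 0.5 mg/ml pooled human liver microsomes and NADPH regenerating system, 0.1 M potassium phosphate pH 7.4, 0.4% DMSO, 37° C, sampled up to 60 min. Residual parent measured by HPLC-MS/MS; half-life and clearance from slope of remaining % of T0.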

Where [6] appears, read: human liver microsomes 0.5 mg/ml, compound 1 μM, pH 7.4, 37° C.

On to `[2H]C(C)(O)Cn1ncc(-c2onc(-c3c(F)cccc3Cl)c2-c2nccs2)c1C(F)(F)F` (racemic) [Example 31, 1-{4-[3-(2-chloro-6-fluorophenyl)-4-(1,3-thiazol-2-yl)-1,2-oxazol-5-yl]-5-(trifluoromethyl)-1H-pyrazol-1-yl}(2-^2H)propan-2-ol], for which the IC50 in data set [1] (Homo sapiens, PBMC) was under 50 nM; in data set [2] (Homo sapiens, PBMC), under 50 nM; in data set [3] (Homo sapiens, PBMC), under 50 nM. Besides, the solubility at 24 h in data set [4] is under 1 µM. Also, the half-life at 1 μM in data set [5] (setting [6]) was 0.667 to 1.67 h.
For `[2H]C(C)(O)Cn1ncc(-c2onc(-c3c(F)cccc3Cl)c2C(=O)OCC)c1C(F)(F)F` (racemic) [Example 32, ethyl 3-(2-chloro-6-fluorophenyl)-5-{1-[2-hydroxy(2-^2H)propyl]-5-(trifluoromethyl)-1H-pyrazol-4-yl}-1,2-oxazole-4-carboxylate], the IC50 is under 50 nM in data set [1] (Homo sapiens, PBMC); under 50 nM in data set [2] (Homo sapiens, PBMC); under 50 nM in data set [3] (Homo sapiens, PBMC). For the same compound, the solubility at 24 h in data set [4] was over 10 µM. Also, the half-life at 1 μM in data set [5] (setting [6]) was in the range of 0.667 to 1.67 h.
On to `[2H]C(C)(O)Cn1ncc(-c2onc(-c3c(F)cccc3Cl)c2C(=O)OC)c1C(F)(F)F` (racemic) [Example 33, methyl 3-(2-chloro-6-fluorophenyl)-5-{1-[2-hydroxy(2-^2H)propyl]-5-(trifluoromethyl)-1H-pyrazol-4-yl}-1,2-oxazole-4-carboxylate], for which the IC50 in data set [1] (Homo sapiens, PBMC) was under 50 nM; in data set [2] (Homo sapiens, PBMC), under 50 nM; in data set [3] (Homo sapiens, PBMC) it was under 50 nM. In addition, the solubility at 24 h in data set [4] was over 10 µM. For the same compound, in data set [5] (setting [6]), the half-life at 1 μM is over 1.67 h.
Take `[2H]C(C)(O)Cn1ncc(-c2onc(-c3c(F)cccc3Cl)c2COC)c1C(F)(F)F` (racemic) [Example 95, 1-{4-[3-(2-chloro-6-fluorophenyl)-4-(methoxymethyl)-1,2-oxazol-5-yl]-5-(trifluoromethyl)-1H-pyrazol-1-yl}(2-^2H)propan-2-ol]: the IC50 in data set [1] (Homo sapiens, PBMC) is 50 to 500 nM; in data set [2] (Homo sapiens, PBMC), 50 to 500 nM; in data set [3] (Homo sapiens, PBMC), 50 to 500 nM. For the same compound, the solubility at 24 h in data set [4] is over 10 µM. Moreover, the half-life at 1 μM in data set [5] (pH 7.4, human liver microsomes, 1 μM compound, 0.5 mg/ml HLM, 37° C.) is over 1.67 h.
As to `CC(C)(O)Cn1ncc(-c2onc(-c3c(F)cccc3Cl)c2-c2nccs2)c1C(F)(F)F` [Example 1, 1-(4-(3-(2-chloro-6-fluorophenyl)-4-(thiazol-2-yl)isoxazol-5-yl)-5-(trifluoromethyl)-1H-pyrazol-1-yl)-2-methylpropan-2-ol], the IC50 in data set [1] (Homo sapiens, PBMC) is 50 to 500 nM; in data set [2] (Homo sapiens, PBMC) it was 50 to 500 nM; in data set [3] (Homo sapiens, PBMC), under 50 nM. For the same compound, in data set [4], the solubility at 24 h was over 10 µM. In data set [5] (setting [6]), the half-life at 1 μM was over 1.67 h.
With `OC1(Cn2ncc(-c3onc(-c4c(F)cccc4Cl)c3-c3nccs3)c2C(F)(F)F)CC1` [Example 2, 1-((4-(3-(2-chloro-6-fluorophenyl)-4-(thiazol-2-yl)isoxazol-5-yl)-5-(trifluoromethyl)-1H-pyrazol-1-yl)methyl)cyclopropanol], the IC50 in data set [1] (Homo sapiens, PBMC) was under 50 nM; in data set [2] (Homo sapiens, PBMC), 50 to 500 nM; in data set [3] (Homo sapiens, PBMC), under 50 nM. The solubility at 24 h in data set [4] lay in the range of 3 to 9.99 µM (≈ 1.45 to 4.84 µg/mL). Besides, the half-life at 1 μM in data set [5] (setting [6]) was 0.167 to 0.666 h.
As to `CCOC(=O)c1c(-c2c(F)cccc2Cl)noc1-c1cnn(CC(C)(C)O)c1C(F)(F)F` [Example 8, ethyl 3-(2-chloro-6-fluorophenyl)-5-(1-(2-hydroxy-2-methylpropyl)-5-(trifluoromethyl)-1H-pyrazol-4-yl)isoxazole-4-carboxylate], the IC50 in data set [1] (Homo sapiens, PBMC) is under 50 nM; in data set [2] (Homo sapiens, PBMC), 50 to 500 nM; in data set [3] (Homo sapiens, PBMC), under 50 nM. For the same compound, the solubility at 24 h in data set [4] is 3 to 9.99 µM (≈ 1.43 to 4.75 µg/mL). Further, the half-life at 1 μM in data set [5] (setting [6]) was over 1.67 h.
With `CCOC(=O)c1c(-c2c(F)cccc2Cl)noc1-c1cnn(CCC(C)(C)O)c1C(F)(F)F` [Example 9, ethyl 3-(2-chloro-6-fluorophenyl)-5-[1-(3-hydroxy-3-methylbutyl)-5-(trifluoromethyl)-1H-pyrazol-4-yl]-1,2-oxazole-4-carboxylate], the IC50 in data set [1] (Homo sapiens, PBMC) is under 50 nM; in data set [2] (Homo sapiens, PBMC) it was under 50 nM; in data set [3] (Homo sapiens, PBMC) it was under 50 nM. The solubility at 24 h in data set [4] fell in the range of 3 to 9.99 µM (≈ 1.47 to 4.89 µg/mL). Also, in data set [5] (setting [6]), the half-life at 1 μM was 0.667 to 1.67 h.
Consider `CCOC(=O)c1c(-c2c(F)cccc2Cl)noc1-c1cnn([C@H]2C[C@@](C)(O)C2)c1C(F)(F)F` [Example 10, ethyl 3-(2-chloro-6-fluorophenyl)-5-[1-(3-hydroxy-3-methylcyclobutyl)-5-(trifluoromethyl)-1H-pyrazol-4-yl]-1,2-oxazole-4-carboxylate], for which the IC50 in data set [1] (Homo sapiens, PBMC) was under 50 nM; in data set [2] (Homo sapiens, PBMC) it was under 50 nM; in data set [3] (Homo sapiens, PBMC) it was under 50 nM. Besides, in data set [4], the solubility at 24 h fell in the range of 3 to 9.99 µM (≈ 1.46 to 4.87 µg/mL). The half-life at 1 μM in data set [5] (setting [6]) is over 1.67 h.
`CCOC(=O)c1c(-c2c(F)cccc2Cl)noc1-c1cnn(C[C@@H](C)O)c1C(F)(F)F` [Example 12, ethyl 3-(2-chloro-6-fluorophenyl)-5-{1-[(2R)-2-hydroxypropyl]-5-(trifluoromethyl)-1H-pyrazol-4-yl}-1,2-oxazole-4-carboxylate]: the IC50 in data set [1] (Homo sapiens, PBMC) is under 50 nM; in data set [2] (Homo sapiens, PBMC), under 50 nM; in data set [3] (Homo sapiens, PBMC) it was under 50 nM. In addition, the solubility at 24 h in data set [4] is over 10 µM. The half-life at 1 μM in data set [5] (setting [6]) fell in the range of 0.167 to 0.666 h.
As to `CCOC(=O)c1c(-c2c(F)cccc2Cl)noc1-c1cnn(C[C@H](C)O)c1C(F)(F)F` [Example 13, ethyl 3-(2-chloro-6-fluorophenyl)-5-(1-((2S)-2-hydroxypropyl)-5-(trifluoromethyl)-1H-pyrazol-4-yl)-1,2-oxazole-4-carboxylate], the IC50 is under 50 nM in data set [1] (Homo sapiens, PBMC); under 50 nM in data set [2] (Homo sapiens, PBMC); under 50 nM in data set [3] (Homo sapiens, PBMC). The solubility at 24 h in data set [4] is over 10 µM. Moreover, the half-life at 1 μM in data set [5] (setting [6]) lay in the range of 0.667 to 1.67 h.
`COC(=O)c1c(-c2c(F)cccc2Cl)noc1-c1cnn(CCC(C)(C)O)c1C` [Example 20, methyl 3-(2-chloro-6-fluorophenyl)-5-[1-(3-hydroxy-3-methylbutyl)-5-methyl-1H-pyrazol-4-yl]-1,2-oxazole-4-carboxylate]: the IC50 in data set [1] (Homo sapiens, PBMC) was under 50 nM; in data set [2] (Homo sapiens, PBMC), under 50 nM; in data set [3] (Homo sapiens, PBMC), under 50 nM. For the same compound, the solubility at 24 h in data set [4] is over 10 µM. The half-life at 1 μM in data set [5] (setting [6]) is over 1.67 h.
For the compound `COC(=O)c1c(-c2c(F)cccc2Cl)noc1-c1cnn([C@H]2C[C@](C)(O)C2)c1C(F)(F)F` [Example 26, methyl 3-(2-chloro-6-fluorophenyl)-5-(1-(3-hydroxy-3-methylcyclobutyl)-5-(trifluoromethyl)-1H-pyrazol-4-yl)isoxazole-4-carboxylate], the IC50 in data set [1], in data set [2] and in data set [3] was 500 to 5000 nM in each case. In addition, the aq. solub. entry in data set [4] is given as “+ (+: 1-2.99 μM)”. The half-life at 1 μM in data set [5] (setting [6]) is 0.667 to 1.67 h.
Turning to `COC(=O)c1c(-c2c(F)cccc2Cl)noc1-c1cnn([C@H]2C[C@](C)(O)C2)c1C(F)(F)F` [Example 27, methyl 3-(2-chloro-6-fluorophenyl)-5-(1-(3-hydroxy-3-methylcyclobutyl)-5-(trifluoromethyl)-1H-pyrazol-4-yl)isoxazole-4-carboxylate], the IC50 in data set [1], in data set [2] and in data set [3] was under 50 nM in each case. In addition, the aq. solub. entry in data set [4] was “++ (++: 3-9.99 μM)”. The “t1/2 hLM” value in data set [5] (setting [6]) is “++ (++: 40-100 min)”.
Regarding `CC(=O)c1c(-c2c(F)cccc2Cl)noc1-c1cnn(C[C@@H](C)O)c1C(F)(F)F` [Example 35, 1-[3-(2-chloro-6-fluorophenyl)-5-{1-[(2R)-2-hydroxypropyl]-5-(trifluoromethyl)-1H-pyrazol-4-yl}-1,2-oxazol-4-yl]ethan-1-one], the IC50 in data set [1] (Homo sapiens, PBMC) fell in the range of 50 to 500 nM; in data set [2] (Homo sapiens, PBMC), 50 to 500 nM; in data set [3] (Homo sapiens, PBMC) it was 50 to 500 nM. In addition, the solubility at 24 h in data set [4] is over 10 µM. In addition, the half-life at 1 μM in data set [5] (setting [6]) fell in the range of 0.667 to 1.67 h.
On to `C[C@@H](O)Cn1ncc(-c2onc(-c3c(F)cccc3Cl)c2C(=O)NC2CCCC2)c1C(F)(F)F` [Example 44, 3-(2-chloro-6-fluorophenyl)-N-cyclopentyl-5-{1-[1-(2R)-2-hydroxypropyl]-5-(trifluoromethyl)-1H-pyrazol-4-yl}-1,2-oxazole-4-carboxamide], for which the IC50 in data set [1] (Homo sapiens, PBMC) fell in the range of 50 to 500 nM; in data set [2] (Homo sapiens, PBMC) it was 500 to 5000 nM; in data set [3] (Homo sapiens, PBMC), 50 to 500 nM. In addition, the solubility at 24 h in data set [4] was over 10 µM. In addition, the half-life at 1 μM in data set [5] (setting [6]) lay in the range of 0.0333 to 0.167 h.
